Measurements published in PubChem BioAssay (NCI).
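Briefly, cells in 96-well plates were exposed to five compound concentrations for 48 h, and endpoints were estimated by linear interpolation. The concentration for 50% growth inhibition is given as GI50. Definition used: TGI = concentration required for complete inhibition of growth.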

How the values were obtained:
Test in all cases: NCI-60 cell line screen, 48 h
A549 NSCLC = test system: A549 NSCLC
CCRF-CEM leukemia = test system: CCRF-CEM leukemia
MALME-3M melanoma = test system: MALME-3M melanoma
SR leukemia = test system: SR leukemia
CAKI-1 renal = test system: CAKI-1 renal
SF-539 CNS = test system: SF-539 CNS
NCI/ADR-RES ovarian = test system: NCI/ADR-RES ovarian
COLO 205 colon = test system: COLO 205 colon
HCT-15 colon = test system: HCT-15 colon
SNB-19 CNS = test system: SNB-19 CNS
NCI-H460 lung = test system: NCI-H460 lung
SK-MEL-2 melanoma = test system: SK-MEL-2 melanoma
BT-549 breast = test system: BT-549 breast
EKVX NSCLC = test system: EKVX NSCLC
IGROV1 ovarian = test system: IGROV1 ovarian
OVCAR-4 ovarian = test system: OVCAR-4 ovarian
OVCAR-5 ovarian = test system: OVCAR-5 ovarian
RPMI-8226 leukemia = test system: RPMI-8226 leukemia
SK-MEL-28 melanoma = test system: SK-MEL-28 melanoma
SW-620 colon = test system: SW-620 colon
SNB-75 CNS = test system: SNB-75 CNS
NCI-H23 lung = test system: NCI-H23 lung
A498 renal = test system: A498 renal
HCC-2998 colon = test system: HCC-2998 colon
SK-OV-3 ovarian = test system: SK-OV-3 ovarian
KM12 colon = test system: KM12 colon
OVCAR-3 ovarian = test system: OVCAR-3 ovarian
SK-MEL-5 melanoma = test system: SK-MEL-5 melanoma
PC-3 prostate = test system: PC-3 prostate
RXF 393 renal = test system: RXF 393 renal
U251 CNS = test system: U251 CNS
HT29 colon = test system: HT29 colon
DU-145 prostate = test system: DU-145 prostate
HOP-92 NSCLC = test system: HOP-92 NSCLC
MCF7 breast = test system: MCF7 breast
TK-10 renal = test system: TK-10 renal
SN12C renal = test system: SN12C renal
MOLT-4 leukemia = test system: MOLT-4 leukemia
NCI-H522 lung = test system: NCI-H522 lung
UO-31 renal = test system: UO-31 renal
UACC-62 melanoma = test system: UACC-62 melanoma
K-562 leukemia = test system: K-562 leukemia
ACHN renal = test system: ACHN renal
MDA-MB-231 breast = test system: MDA-MB-231 breast
MDA-MB-435 = test system: MDA-MB-435
HL-60(TB) leukemia = test system: HL-60(TB) leukemia
SF-295 CNS = test system: SF-295 CNS
SF-268 CNS = test system: SF-268 CNS
UACC-257 melanoma = test system: UACC-257 melanoma
LOX IMVI melanoma = test system: LOX IMVI melanoma
NCI-H226 lung = test system: NCI-H226 lung
HOP-62 NSCLC = test system: HOP-62 NSCLC

C=C(C)[C@@H]1CC[C@]2(C(=O)NC(C)=O)CC[C@]3(C)[C@H](CC[C@@H]4[C@@]5(C)CCCNC(C)(C)[C@@H]5CC[C@]43C)[C@@H]12
GI50 (A549 NSCLC): 1610 nM | TGI (A549 NSCLC): 3330 nM | GI50 (CCRF-CEM leukemia): 1650 nM | TGI (CCRF-CEM leukemia): 4.55 µM | GI50 (MALME-3M melanoma): 1340 nM | TGI (MALME-3M melanoma): 2650 nM | GI50 (SR leukemia): 839 nM | TGI (SR leukemia): 3.07 µM | GI50 (CAKI-1 renal): 1640 nM | TGI (CAKI-1 renal): 3100 nM | GI50 (SF-539 CNS): 1510 nM | TGI (SF-539 CNS): 2840 nM | GI50 (NCI/ADR-RES ovarian): 1830 nM | TGI (NCI/ADR-RES ovarian): 3680 nM | GI50 (COLO 205 colon): 1190 nM | TGI (COLO 205 colon): 2980 nM | GI50 (HCT-15 colon): 1520 nM | TGI (HCT-15 colon): 2970 nM | GI50 (SNB-19 CNS): 1600 nM | TGI (SNB-19 CNS): 2960 nM | GI50 (NCI-H460 lung): 1640 nM | TGI (NCI-H460 lung): 3130 nM | GI50 (SK-MEL-2 melanoma): 1920 nM | TGI (SK-MEL-2 melanoma): 3730 nM | GI50 (BT-549 breast): 1680 nM | TGI (BT-549 breast): 3280 nM | GI50 (EKVX NSCLC): 1600 nM | TGI (EKVX NSCLC): 3230 nM | GI50 (IGROV1 ovarian): 1690 nM | TGI (IGROV1 ovarian): 3150 nM | GI50 (OVCAR-4 ovarian): 1510 nM | TGI (OVCAR-4 ovarian): 3230 nM | GI50 (OVCAR-5 ovarian): 1530 nM | TGI (OVCAR-5 ovarian): 2880 nM | GI50 (RPMI-8226 leukemia): 1180 nM | TGI (RPMI-8226 leukemia): 3400 nM | GI50 (SK-MEL-28 melanoma): 1660 nM | TGI (SK-MEL-28 melanoma): 3040 nM | GI50 (SW-620 colon): 1530 nM | TGI (SW-620 colon): 3070 nM | GI50 (SNB-75 CNS): 1400 nM | TGI (SNB-75 CNS): 2830 nM | GI50 (NCI-H23 lung): 1760 nM | TGI (NCI-H23 lung): 3510 nM | GI50 (A498 renal): 1530 nM | TGI (A498 renal): 2910 nM | GI50 (HCC-2998 colon): 1310 nM | TGI (HCC-2998 colon): 2690 nM | GI50 (SK-OV-3 ovarian): 1630 nM | TGI (SK-OV-3 ovarian): 3220 nM | GI50 (KM12 colon): 1510 nM | TGI (KM12 colon): 2900 nM | GI50 (OVCAR-3 ovarian): 1590 nM | TGI (OVCAR-3 ovarian): 3040 nM | GI50 (SK-MEL-5 melanoma): 1760 nM | TGI (SK-MEL-5 melanoma): 3150 nM | GI50 (PC-3 prostate): 1590 nM | TGI (PC-3 prostate): 3500 nM | GI50 (RXF 393 renal): 1760 nM | TGI (RXF 393 renal): 3260 nM | GI50 (U251 CNS): 1680 nM | TGI (U251 CNS): 3.26 µM | GI50 (HT29 colon): 1210 nM | TGI (HT29 colon): 3.06 µM | GI50 (DU-145 prostate): 1570 nM | TGI (DU-145 prostate): 2940 nM | GI50 (HOP-92 NSCLC): 1330 nM | TGI (HOP-92 NSCLC): 2890 nM | GI50 (MCF7 breast): 1410 nM | TGI (MCF7 breast): 3000 nM | GI50 (TK-10 renal): 1790 nM | TGI (TK-10 renal): 3380 nM | GI50 (SN12C renal): 1470 nM | TGI (SN12C renal): 2790 nM | GI50 (MOLT-4 leukemia): 1400 nM | TGI (MOLT-4 leukemia): 3.86 µM | GI50 (NCI-H522 lung): 1660 nM | TGI (NCI-H522 lung): 3560 nM | GI50 (UO-31 renal): 1400 nM | TGI (UO-31 renal): 2690 nM | GI50 (UACC-62 melanoma): 1730 nM | TGI (UACC-62 melanoma): 3110 nM | GI50 (K-562 leukemia): 1120 nM | TGI (K-562 leukemia): 3.18 µM | GI50 (ACHN renal): 1770 nM | TGI (ACHN renal): 3150 nM | GI50 (MDA-MB-231 breast): 1820 nM | TGI (MDA-MB-231 breast): 3290 nM | GI50 (MDA-MB-435): 1550 nM | TGI (MDA-MB-435): 3110 nM | GI50 (HL-60(TB) leukemia): 1350 nM | TGI (HL-60(TB) leukemia): 3200 nM | GI50 (SF-295 CNS): 1810 nM | TGI (SF-295 CNS): 3240 nM | GI50 (SF-268 CNS): 1690 nM | TGI (SF-268 CNS): 3250 nM | GI50 (UACC-257 melanoma): 1950 nM | TGI (UACC-257 melanoma): 3750 nM | GI50 (LOX IMVI melanoma): 1180 nM | TGI (LOX IMVI melanoma): 2480 nM

C=C(C)[C@@H]1CC[C@]2(CO)CC[C@]3(C)[C@H](CC[C@@H]4[C@@]5(C)CC[C@H](NCO)C(C)(C)[C@@H]5CC[C@]43C)[C@@H]12
GI50 (A549 NSCLC): 885 nM | TGI (A549 NSCLC): 1730 nM | GI50 (CCRF-CEM leukemia): 1020 nM | TGI (CCRF-CEM leukemia): 3.21 µM | GI50 (MALME-3M melanoma): 792 nM | TGI (MALME-3M melanoma): 1530 nM | GI50 (NCI-H226 lung): 8.3 µM | TGI (NCI-H226 lung): 20.5 µM | GI50 (CAKI-1 renal): 882 nM | TGI (CAKI-1 renal): 1590 nM | GI50 (SF-539 CNS): 826 nM | TGI (SF-539 CNS): 1520 nM | GI50 (NCI/ADR-RES ovarian): 894 nM | TGI (NCI/ADR-RES ovarian): 1720 nM | GI50 (COLO 205 colon): 898 nM | TGI (COLO 205 colon): 1820 nM | GI50 (SNB-19 CNS): 950 nM | TGI (SNB-19 CNS): 1820 nM | GI50 (NCI-H460 lung): 918 nM | TGI (NCI-H460 lung): 1790 nM | GI50 (SK-MEL-2 melanoma): 961 nM | TGI (SK-MEL-2 melanoma): 1830 nM | GI50 (HOP-62 NSCLC): 862 nM | TGI (HOP-62 NSCLC): 1740 nM | GI50 (BT-549 breast): 792 nM | TGI (BT-549 breast): 1530 nM | GI50 (EKVX NSCLC): 869 nM | TGI (EKVX NSCLC): 1640 nM | GI50 (IGROV1 ovarian): 899 nM | TGI (IGROV1 ovarian): 1680 nM | GI50 (OVCAR-4 ovarian): 827 nM | TGI (OVCAR-4 ovarian): 1590 nM | GI50 (OVCAR-5 ovarian): 850 nM | TGI (OVCAR-5 ovarian): 1560 nM | GI50 (RPMI-8226 leukemia): 934 nM | TGI (RPMI-8226 leukemia): 2500 nM | GI50 (SK-MEL-28 melanoma): 894 nM | TGI (SK-MEL-28 melanoma): 1610 nM | GI50 (SW-620 colon): 948 nM | TGI (SW-620 colon): 1960 nM | GI50 (SNB-75 CNS): 710 nM | TGI (SNB-75 CNS): 1400 nM | GI50 (NCI-H23 lung): 869 nM | TGI (NCI-H23 lung): 1670 nM | GI50 (A498 renal): 802 nM | TGI (A498 renal): 1690 nM | GI50 (SK-OV-3 ovarian): 870 nM | TGI (SK-OV-3 ovarian): 1610 nM | GI50 (KM12 colon): 886 nM | TGI (KM12 colon): 1630 nM | GI50 (OVCAR-3 ovarian): 880 nM | TGI (OVCAR-3 ovarian): 1610 nM | GI50 (SK-MEL-5 melanoma): 870 nM | TGI (SK-MEL-5 melanoma): 1590 nM | GI50 (PC-3 prostate): 850 nM | TGI (PC-3 prostate): 1850 nM | GI50 (RXF 393 renal): 842 nM | TGI (RXF 393 renal): 1570 nM | GI50 (DU-145 prostate): 878 nM | TGI (DU-145 prostate): 1580 nM | GI50 (HOP-92 NSCLC): 783 nM | TGI (HOP-92 NSCLC): 1600 nM | GI50 (MCF7 breast): 794 nM | TGI (MCF7 breast): 1610 nM | GI50 (TK-10 renal): 965 nM | TGI (TK-10 renal): 1780 nM | GI50 (SN12C renal): 790 nM | TGI (SN12C renal): 1500 nM | GI50 (MOLT-4 leukemia): 1000 nM | TGI (MOLT-4 leukemia): 2.56 µM | GI50 (NCI-H522 lung): 1030 nM | TGI (NCI-H522 lung): 2010 nM | GI50 (UO-31 renal): 703 nM | TGI (UO-31 renal): 1350 nM | GI50 (UACC-62 melanoma): 918 nM | TGI (UACC-62 melanoma): 1630 nM | GI50 (K-562 leukemia): 974 nM | TGI (K-562 leukemia): 3.59 µM | GI50 (ACHN renal): 943 nM | TGI (ACHN renal): 1650 nM | GI50 (MDA-MB-231 breast): 995 nM | TGI (MDA-MB-231 breast): 1750 nM | GI50 (MDA-MB-435): 896 nM | TGI (MDA-MB-435): 1780 nM | GI50 (HL-60(TB) leukemia): 1000 nM | TGI (HL-60(TB) leukemia): 2320 nM | GI50 (SF-295 CNS): 873 nM | TGI (SF-295 CNS): 1580 nM | GI50 (SF-268 CNS): 944 nM | TGI (SF-268 CNS): 1920 nM | GI50 (UACC-257 melanoma): 935 nM | TGI (UACC-257 melanoma): 1910 nM
